# Legend:
# [1] = test system: Gβγ-activated PI3K (PI3Ks A and B; p117/p101 and p120/p101 heterodimers); experiment: PI3K assay on purified pig neutrophil Gβγ-activated PI3Ks A and B; assay type: biochemical; settings: 100 nM wortmannin; 5 μM ATP in the assays
# [2] = molecular target: free p120 PI3K catalytic subunit (Sus scrofa, UniProt O02697); experiment: PI3K assay on free recombinant p120 (Sf9-derived); assay type: biochemical, porcine
# Protocol: Assays contained either 7 nM p101/p120 or 36 nM p120 alone (final concentrations) which were incubated with various reagents; 10 mM NaF and 30 μM AlCl3 (A/F) ; 1 μM Gβγ-subunits (βγ); 2 μM Gα-GDP; 100 nM wortmannin (W) or 50 μM tyrosine phosphorylated peptide (PY) for a total of 15 minutes (at 0° C.) prior to starting the assays by adding [γ^32 P]-ATP; [^32 P]-incorporated into [^32 P]-PtdIns(3,4,5) P3 was quantified. The data shown are means (n=2).
# Purified aliquots of Sf9 -derived or pig neutrophil cytosol-derived PI3K were diluted in ice-cold 0.12M NaCl, 25 mM HEPES, 1 mM EGTA, 1 mM DTT, 1 mg-ml^-1 BSA, 1% betaine, 0.02%, w/v, Tween-20, pH 7.4, 0° C. to an appropriate extent, then 5 μl aliquots were stored on ice until assayed. […] 30 μl of a mixture of phospholipids with or without Gβγs and/or Gαs (either GDP-bound or activated) was added to the 5 μl fractions, or 10 μl of beads, and mixed. After 10 minutes on ice, 5-10 μl of last wash buffer, supplemented with MgCl2 to give a final concentration in the extant assay volume of 3.5 mM, was added and mixed. Six minutes later, 5 μl of last wash buffer was added (to give a final assay volume of 50 μl) containing [^32 ]-ATP (typically 10 μCi assay^-1, Amersham, PB10168) and 3.5 mM MgCl2, tubes were mixed and transferred to a 30° C. water bath. […]
# [3] = molecular target: T1, PI3K activity in α-(EE)-p101 immunoprecipitates from U937 cells (Homo sapiens, UniProt P48736); experiment: PI3K assay on α-(EE)-p101 immunoprecipitates from transfected U937 cells; assay type: biochemical
# T1 construct: U937 cells (human) contain an endogenous PI3K catalytic subunit; expressed in transfected cells; host or cells: U937 (p101 transfected, catalytic subunit endogenous)
# Protocol: U937 cells were transiently transfected with mammalian expression vectors encoding either (EE)120 or (EE)101, co-transfected in combination with mammalian expression vectors encoding myc101, myc120, or an irrelevant control myc fusion protein, as indicated. A total of 40 μg of vector DNA was used. After co-transfection, the cells lysed, precleaned and immunoprecipitated with protein G sepharose covalently cross-linked to α-(EE) monoclonal antibody as described more fully in the Examples herein. The resulting immunoprecipitates were washed and Gβγ-activated (1 μM, final concentration) PI3K activity was assayed. The PI3K activity detected in immunoprecipitates from cells transfected with irrelevant (EE)-tagged protein, either with or without Gβγs was subtracted from the data shown (these were means of 1896 dpm and 2862 dpm in the absence and presence of Gβγs, respectively).
# If the PI3K assays were performed on immunoprecipitates from U937 cells (see following examples) then the PI3K was immobilized on 10 μl of packed protein G Sepharose beads in an ice-cold buffer defined above. 30 μl of a mixture of phospholipids with or without Gβγs and/or Gαs (either GDP-bound or activated) was added to the 5 μl fractions, or 10 μl of beads, and mixed. […]
# [4] = test system: neutrophils; settings: cited from earlier work
# free p120 PI3K catalytic subunit, sequence (O02697 whole entry): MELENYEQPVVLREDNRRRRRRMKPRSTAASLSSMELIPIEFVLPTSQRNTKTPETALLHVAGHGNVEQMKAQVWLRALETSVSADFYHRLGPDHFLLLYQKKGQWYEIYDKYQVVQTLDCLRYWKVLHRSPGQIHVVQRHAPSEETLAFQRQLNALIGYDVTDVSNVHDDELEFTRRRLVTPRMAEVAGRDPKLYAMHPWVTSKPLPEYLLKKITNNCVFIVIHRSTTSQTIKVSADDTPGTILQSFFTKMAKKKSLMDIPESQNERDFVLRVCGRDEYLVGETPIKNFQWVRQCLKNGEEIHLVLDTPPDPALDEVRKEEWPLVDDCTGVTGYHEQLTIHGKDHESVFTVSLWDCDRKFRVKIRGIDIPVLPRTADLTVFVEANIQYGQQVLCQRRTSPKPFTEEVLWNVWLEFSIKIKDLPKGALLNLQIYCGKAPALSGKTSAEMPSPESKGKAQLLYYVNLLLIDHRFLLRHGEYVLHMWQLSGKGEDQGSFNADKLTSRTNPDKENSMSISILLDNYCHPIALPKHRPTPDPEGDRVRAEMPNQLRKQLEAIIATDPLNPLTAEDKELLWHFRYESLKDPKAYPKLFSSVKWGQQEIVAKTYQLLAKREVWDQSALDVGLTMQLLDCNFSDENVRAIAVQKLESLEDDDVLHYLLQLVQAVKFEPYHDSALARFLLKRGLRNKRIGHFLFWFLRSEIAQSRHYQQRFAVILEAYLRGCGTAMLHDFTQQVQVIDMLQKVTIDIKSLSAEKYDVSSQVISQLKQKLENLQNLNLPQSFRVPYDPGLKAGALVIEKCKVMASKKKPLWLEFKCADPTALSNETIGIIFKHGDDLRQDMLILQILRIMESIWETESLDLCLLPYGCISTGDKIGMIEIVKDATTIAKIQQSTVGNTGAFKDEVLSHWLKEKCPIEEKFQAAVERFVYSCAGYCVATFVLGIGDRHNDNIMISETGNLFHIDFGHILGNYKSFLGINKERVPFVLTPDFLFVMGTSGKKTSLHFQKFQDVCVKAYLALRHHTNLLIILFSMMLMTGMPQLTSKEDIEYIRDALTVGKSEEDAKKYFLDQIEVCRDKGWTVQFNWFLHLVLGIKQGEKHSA
# T1 sequence (P48736 whole entry): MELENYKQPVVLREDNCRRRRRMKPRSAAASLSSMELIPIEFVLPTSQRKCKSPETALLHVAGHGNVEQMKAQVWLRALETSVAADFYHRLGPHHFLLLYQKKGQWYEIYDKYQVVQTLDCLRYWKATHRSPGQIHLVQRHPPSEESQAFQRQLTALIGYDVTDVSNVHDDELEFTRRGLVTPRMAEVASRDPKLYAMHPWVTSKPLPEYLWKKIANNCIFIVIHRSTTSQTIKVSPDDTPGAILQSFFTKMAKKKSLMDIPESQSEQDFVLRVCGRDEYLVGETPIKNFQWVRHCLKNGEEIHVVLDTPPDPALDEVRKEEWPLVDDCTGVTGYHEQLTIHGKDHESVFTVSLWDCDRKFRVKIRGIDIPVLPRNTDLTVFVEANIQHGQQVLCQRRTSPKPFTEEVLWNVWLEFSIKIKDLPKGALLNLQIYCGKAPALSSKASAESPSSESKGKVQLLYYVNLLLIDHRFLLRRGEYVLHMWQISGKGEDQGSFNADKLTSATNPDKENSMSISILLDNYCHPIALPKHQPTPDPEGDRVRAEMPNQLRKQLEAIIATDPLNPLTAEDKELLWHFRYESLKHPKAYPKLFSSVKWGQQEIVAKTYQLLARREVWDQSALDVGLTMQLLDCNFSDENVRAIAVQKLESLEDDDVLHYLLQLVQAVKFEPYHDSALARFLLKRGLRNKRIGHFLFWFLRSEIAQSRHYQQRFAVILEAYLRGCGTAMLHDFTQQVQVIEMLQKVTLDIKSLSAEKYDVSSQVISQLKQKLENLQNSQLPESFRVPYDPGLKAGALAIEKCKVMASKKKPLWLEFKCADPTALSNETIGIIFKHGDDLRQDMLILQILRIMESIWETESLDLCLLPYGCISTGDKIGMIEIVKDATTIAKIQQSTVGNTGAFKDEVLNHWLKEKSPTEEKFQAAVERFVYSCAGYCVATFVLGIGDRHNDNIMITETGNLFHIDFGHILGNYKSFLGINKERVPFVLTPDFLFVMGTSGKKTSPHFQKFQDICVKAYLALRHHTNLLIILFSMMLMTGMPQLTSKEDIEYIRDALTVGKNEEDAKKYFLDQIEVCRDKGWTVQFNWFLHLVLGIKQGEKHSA
# T1 sequence (as listed by the source partner): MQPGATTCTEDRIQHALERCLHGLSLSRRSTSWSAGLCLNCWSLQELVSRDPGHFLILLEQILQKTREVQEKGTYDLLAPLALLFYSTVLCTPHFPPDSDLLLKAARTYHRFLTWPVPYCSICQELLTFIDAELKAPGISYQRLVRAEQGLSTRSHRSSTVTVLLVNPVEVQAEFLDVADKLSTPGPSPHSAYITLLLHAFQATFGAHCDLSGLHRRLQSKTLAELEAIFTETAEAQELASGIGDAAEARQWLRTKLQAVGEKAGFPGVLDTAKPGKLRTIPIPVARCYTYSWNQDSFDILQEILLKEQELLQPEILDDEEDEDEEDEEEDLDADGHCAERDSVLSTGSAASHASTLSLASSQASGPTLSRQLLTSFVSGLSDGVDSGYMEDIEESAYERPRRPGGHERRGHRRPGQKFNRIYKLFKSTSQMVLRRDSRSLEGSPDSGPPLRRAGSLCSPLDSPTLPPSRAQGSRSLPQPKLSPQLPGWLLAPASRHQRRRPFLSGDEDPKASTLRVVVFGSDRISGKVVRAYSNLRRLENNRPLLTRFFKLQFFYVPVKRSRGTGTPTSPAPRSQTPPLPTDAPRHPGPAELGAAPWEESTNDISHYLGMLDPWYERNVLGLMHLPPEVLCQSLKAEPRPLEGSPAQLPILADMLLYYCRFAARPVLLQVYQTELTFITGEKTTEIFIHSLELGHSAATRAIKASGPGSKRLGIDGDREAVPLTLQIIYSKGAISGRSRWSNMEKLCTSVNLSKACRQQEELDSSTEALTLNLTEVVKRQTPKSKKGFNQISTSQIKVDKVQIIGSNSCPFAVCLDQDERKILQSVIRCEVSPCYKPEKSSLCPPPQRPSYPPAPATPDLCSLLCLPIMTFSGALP
structure (smiles),measurement,setting,value
COC[C@H]1OC(=O)c2coc3c2[C@@]1(C)C1=C(C3=O)[C@@H]2CCC(=O)[C@@]2(C)C[C@H]1OC(C)=O [wortmannin],inhibition of PI3K activity by wortmannin,[1],completely inhibited
same,wortmannin sensitivity of free p120 PI3K activity,[2],wortmannin-sensitive
same,wortmannin sensitivity of PI3K activity in α-(EE)-p101 immunoprecipitates,[3],wortmannin-sensitive
same,fMLP-induced respiratory burst response,"[4]; Thelen et al., 1994",prevents
same,superoxide production in neutrophils,[4],shutdown of superoxide production

# — patent US5869271A, “G-beta-gamma regulated phosphatidylinositol-3' kinase” (Onyx Pharmaceuticals, priority 1997, dated 1999)
